Counter-ions that a name gives are not always drawn.
Target: T1, PTPMT1 (Protein Tyrosine Phosphatase localized to the Mitochondrion 1) (Homo sapiens, UniProt Q8WUK0)
T1 construct: human PTPMT1 open reading frame cloned into pGEX-KG, purified using glutathione-conjugated sepharose
T1 sequence (Q8WUK0 1-201): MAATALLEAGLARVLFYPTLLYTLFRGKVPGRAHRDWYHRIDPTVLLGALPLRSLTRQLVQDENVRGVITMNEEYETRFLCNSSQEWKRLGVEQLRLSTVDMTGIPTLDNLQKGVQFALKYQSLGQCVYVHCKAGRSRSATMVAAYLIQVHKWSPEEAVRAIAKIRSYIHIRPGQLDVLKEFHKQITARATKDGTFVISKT
Test: in vitro phosphatase assay with recombinant enzyme, OMFP substrate, fluorescence readout
Format: biochemical

IC50: 2.5 µM
SMILES: CCCCC(CC)CNC(=N)NC(=N)NCCCCCCNC(=N)NC(=N)NCC(CC)CCCC (stereo not shown) [alexidine dihydrochloride]

Source: article PMC3542197, “Downregulation of the Mitochondrial Phosphatase PTPMT1 Is Sufficient to Promote Cancer Cell Death” (PLoS ONE, 2013)
